For five compounds, TD50 and carcinogen call results are on record in PubChem BioAssay AID1745844 (Carcinogenic Potency Database (CPDB), 2022).

This series has as its system rodent lifetime carcinogenesis bioassay, tumor incidence TD50. The experiment in a line: carcinogenic potency in animals, long-term in vivo studies, CPDB compilation (AID 1745844). The settings on record: in feed.

The source made the active and inactive calls. The rule behind the calls is not given here.

A word on the TD50: it is the 50% point of the dose-response relation for the toxic effect studied.

Consider `ClC1=C(Cl)[C@]2(Cl)[C@@H]3[C@H]4C[C@H]([C@@H]5O[C@H]45)[C@@H]3[C@@]1(Cl)C2(Cl)Cl`, for which the TD50 reads like this: (mouse, strain B6C3F1, females, site: any site (literature study), lesion: several types, types named in the paper, dosed 80 weeks, study length 90 weeks) 6.88 mg/kg/day (inactive); (mouse, strain B6C3F1, females, site: lung, lesion: alveolar/bronchiolar adenoma + alveolar/bronchiolar carcinoma, dosed 80 weeks, study length 90 weeks) 67 mg/kg/day; (mouse, strain B6C3F1, males, site: any site (literature study), lesion: several types, types named in the paper, dosed 80 weeks, study length 90 weeks) 0.546 mg/kg/day (inactive); (mouse, strain B6C3F1, males, site: liver, lesion: hepatocellular adenoma + hepatocellular carcinoma + neoplastic nodule, dosed 80 weeks, study length 90 weeks) 0.854 mg/kg/day; (mouse, strain B6C3F1, males, site: lung, lesion: alveolar/bronchiolar adenoma + alveolar/bronchiolar carcinoma, dosed 80 weeks, study length 90 weeks) 1.27 mg/kg/day; (rat, strain Osborne-Mendel, females, site: adrenal gland, lesion: adenoma, NOS + carcinoma, NOS, dosed 80 weeks, study length 109 weeks) 0.227 mg/kg/day (inactive). Moreover, the TD50 is 42.3 mg/kg/day (inactive) (rat, strain Osborne-Mendel, females, site: liver, lesion: hemangioma, dosed 117 weeks, study length 121 weeks); 7.44 mg/kg/day (rat, strain Osborne-Mendel, females, site: liver, lesion: hepatocellular adenoma + hepatocellular carcinoma + neoplastic nodule, dosed 80 weeks, study length 110 weeks); 0.579 mg/kg/day (rat, strain Osborne-Mendel, females, site: pituitary gland, lesion: adenoma, NOS, dosed 80 weeks, study length 109 weeks); 0.553 mg/kg/day (inactive) (rat, strain Osborne-Mendel, males, site: adrenal gland, lesion: adenoma, NOS + carcinoma, NOS, dosed 80 weeks, study length 110 weeks); 0.66 mg/kg/day (rat, strain Osborne-Mendel, males, site: adrenal gland, lesion: adenoma, NOS, dosed 80 weeks, study length 110 weeks); 0.661 mg/kg/day (rat, strain Osborne-Mendel, males, site: all sites, lesion: hemangioma, dosed 80 weeks, study length 110 weeks). In addition, the TD50 (rat, strain Osborne-Mendel, males, site: any site (literature study), lesion: several types, types named in the paper, dosed 80 weeks, study length 110 weeks) was 0.776 mg/kg/day (inactive) and the TD50 (rat, strain Osborne-Mendel, males, site: pancreatic islets, lesion: islet-cell carcinoma, dosed 80 weeks, study length 110 weeks) came to 1.75 mg/kg/day. The carcinogen call is “negative (inactive)” (rat, strain Osborne-Mendel, females, site: any site (literature study), lesion: several types, types named in the paper, dosed 80 weeks, study length 110 weeks); “negative (inactive)” (rat, strain Osborne-Mendel, females, site: any site (literature study), lesion: several types, types named in the paper, dosed 117 weeks, study length 121 weeks); “negative (inactive)” (rat, strain Osborne-Mendel, males, site: any site (literature study), lesion: several types, types named in the paper, dosed 121 weeks, study length 126 weeks); “negative (inactive)” (rat, strain Osborne-Mendel, males, site: liver, lesion: hemangioma, dosed 121 weeks, study length 126 weeks).
On to `NC(=S)NNC(N)=S`, for which the TD50 reads like this: (mouse, strain B6C3F1, females, site: any site (literature study), lesion: several types, types named in the paper, dosed 94 weeks, study length 94 weeks) 4350 mg/kg/day; (mouse, strain B6C3F1, females, site: liver, lesion: hepatocellular adenoma + hepatocellular carcinoma + neoplastic nodule, dosed 94 weeks, study length 94 weeks) 5670 mg/kg/day; (mouse, strain B6C3F1, females, site: liver, lesion: hepatocellular carcinoma, dosed 94 weeks, study length 94 weeks) 5670 mg/kg/day; (mouse, strain B6C3F1, females, site: lung, lesion: alveolar/bronchiolar adenoma + alveolar/bronchiolar carcinoma, dosed 94 weeks, study length 94 weeks) 22900 mg/kg/day; (mouse, strain B6C3F1, males, site: any site (literature study), lesion: several types, types named in the paper, dosed 94 weeks, study length 94 weeks) 20000 mg/kg/day (inactive); (rat, strain Fischer 344, females, site: any site (literature study), lesion: several types, types named in the paper, dosed 109 weeks, study length 109 weeks) 842 mg/kg/day (inactive). For the same compound, the TD50 reads like this: (rat, strain Fischer 344, females, site: liver, lesion: hepatocellular adenoma + hepatocellular carcinoma + neoplastic nodule, dosed 109 weeks, study length 109 weeks) 131000 mg/kg/day; (rat, strain Fischer 344, males, site: any site (literature study), lesion: several types, types named in the paper, dosed 109 weeks, study length 109 weeks) 960 mg/kg/day; (rat, strain Fischer 344, males, site: liver, lesion: hepatocellular adenoma + hepatocellular carcinoma + neoplastic nodule, dosed 109 weeks, study length 109 weeks) 5010 mg/kg/day; (rat, strain Fischer 344, males, site: pituitary gland, lesion: carcinoma, NOS, dosed 109 weeks, study length 109 weeks) 2620 mg/kg/day (inactive).
For the compound `COc1cc(CNC(=O)CCCC/C=C/C(C)C)ccc1O`, the carcinogen call (mouse, strain B6C3F1, females, site: any site (literature study), lesion: several types, types named in the paper, dosed 79 weeks, study length 83 weeks) was “negative (inactive)”; the carcinogen call (mouse, strain B6C3F1, females, site: liver, lesion: several types, types named in the paper, dosed 79 weeks, study length 83 weeks) was “negative (inactive)”; the carcinogen call (mouse, strain B6C3F1, females, site: lung, lesion: adenoma, dosed 79 weeks, study length 83 weeks) is “negative (inactive)”; the carcinogen call (mouse, strain B6C3F1, males, site: liver, lesion: several types, types named in the paper, dosed 79 weeks, study length 83 weeks) is “negative (inactive)”; the carcinogen call (mouse, strain Swiss albino, males, site: cecum, lesion: polypoid adenoma, dosed 124 weeks, study length 124 weeks) is “positive”. Further, the TD50 is, setting by setting: (mouse, strain B6C3F1, males, site: any site (literature study), lesion: several types, types named in the paper, dosed 79 weeks, study length 83 weeks) 2040 mg/kg/day (inactive); (mouse, strain B6C3F1, males, site: lung, lesion: adenoma, dosed 79 weeks, study length 83 weeks) 16100 mg/kg/day (inactive); (mouse, strain Swiss albino, females, site: cecum, lesion: polypoid adenoma, dosed 152 weeks, study length 152 weeks) 167 mg/kg/day; (mouse, strain Swiss albino, females, site: duodenum, lesion: adenocarcinoma, dosed 152 weeks, study length 152 weeks) 2310 mg/kg/day; (mouse, strain Swiss albino, females, site: lung, lesion: adenoma, dosed 152 weeks, study length 152 weeks) 225 mg/kg/day; (mouse, strain Swiss albino, females, site: lung, lesion: several types, types named in the paper, dosed 152 weeks, study length 152 weeks) 1080 mg/kg/day. The TD50 (mouse, strain Swiss albino, males, site: duodenum, lesion: several types, types named in the paper, dosed 124 weeks, study length 124 weeks) came to 404 mg/kg/day.
As for `CC(C)(OCc1ccc(-c2ccc(Cl)cc2)cc1)C(=O)O`, the carcinogen call is “negative (inactive)” (hamster, strain Syrian Golden, females, site: liver, lesion: one or several types, types not named, dosed 104 weeks, study length 104 weeks); “negative (inactive)” (hamster, strain Syrian Golden, females, site: lung, lesion: one or several types, types not named, dosed 104 weeks, study length 104 weeks); “negative (inactive)” (hamster, strain Syrian Golden, males, site: liver, lesion: one or several types, types not named, dosed 104 weeks, study length 104 weeks). Also, the TD50 reads like this: (hamster, strain Syrian Golden, males, site: lung, lesion: one or several types, types not named, dosed 104 weeks, study length 104 weeks) 1510 mg/kg/day (inactive); (mouse, strain C57BL/10J, females, site: liver, lesion: hepatocellular carcinoma, dosed 78 weeks, study length 78 weeks) 870 mg/kg/day; (mouse, strain C57BL/10J, females, site: lung, lesion: one or several types, types not named, dosed 78 weeks, study length 78 weeks) 1010 mg/kg/day; (mouse, strain C57BL/10J, males, site: liver, lesion: hepatocellular adenoma, dosed 78 weeks, study length 78 weeks) 154 mg/kg/day; (mouse, strain C57BL/10J, males, site: liver, lesion: hepatocellular carcinoma, dosed 78 weeks, study length 78 weeks) 214 mg/kg/day; (rat, strain Alpk:APfSD, males, site: liver, lesion: hepatocellular adenoma, dosed 104 weeks, study length 104 weeks) 62.5 mg/kg/day.
For `CC(=O)[O-].CC(=O)[O-].CCC(=O)c1ccc(F)c([C@@H]2C[C@@H]2NC(=O)Nc2ccc(C#N)cn2)c1O.[Zn+2]`, the TD50 (hamster, strain Syrian Golden, females, site: any site (literature study), lesion: several types, types named in the paper, dosed 78 weeks, study length 78 weeks) was 177000 mg/kg/day (inactive); the TD50 (hamster, strain Syrian Golden, males, site: any site (literature study), lesion: several types, types named in the paper, dosed 106 weeks, study length 111 weeks) was 54100 mg/kg/day (inactive); the TD50 (rat, strain MRC, females, site: peripheral nervous system, lesion: one or several types, types not named, dosed 143 weeks, study length 146 weeks) was 35400 mg/kg/day (inactive). Besides, the carcinogen call by setting is: (hamster, strain Syrian Golden, females, site: liver, lesion: hemangioma, dosed 78 weeks, study length 78 weeks) “negative (inactive)”; (hamster, strain Syrian Golden, males, site: liver, lesion: hemangioma, dosed 106 weeks, study length 111 weeks) “negative (inactive)”; (rat, strain MRC, females, site: skin, lesion: one or several types, types not named, dosed 143 weeks, study length 146 weeks) “negative (inactive)”; (rat, strain MRC, males, site: any site (literature study), lesion: several types, types named in the paper, dosed 139 weeks, study length 141 weeks) “negative (inactive)”.
